Test results: US11440909B2, “10H-phenothiazine ferroptosis inhibitor as well as the preparative method and the use thereof” (CHENGDU HENGHAO INVESTMENT CO. LIMITED, priority 2018, dated 2022)
Where two headings read alike, the source gives them in different places.

Tested on: fibrosarcoma cell line HT1080
Test: Ferroptosis screening model (MTT method), Erastin-induced ferroptosis
Type: cell-based, human
Details: HT1080, ferroptosis inducer Erastin, 72 h, average of three tests, read-out: EC50
How it was run: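 HT1080 cells adhered 24 h, then received compound plus Erastin ([…] final) for 72 h at 37 °C, 5% CO2, in triplicate. Viability by MTT with SDS solubilisation, absorbance at 570 nm; inhibition of ferroptosis fitted to give EC50.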

| EC50 (Homo sapiens, HT-1080, 72 h) [nM] | EC50 [nM] | SMILES |
| --- | --- | --- |
| 17 |  | CCN1CCN(S(=O)(=O)C(C)c2ccc3c(c2)Nc2ccccc2S3)CC1 (stereo not drawn) [Compound C10, 2-(1-((4-ethylpiperazin-1-yl)sulfonyl)ethyl)-10H-phenothiazine] |
|  | 327 | CC(c1ccc2c(c1)Nc1ccccc1S2)S(=O)(=O)N1CC[C@H](CNC(=O)OC(C)(C)C)C1 (stereo partly drawn) [Compound C33, t-butyl (((3R)-1-((1-(10H-phenothiazin-2-yl)ethyl)sulfonyl)pyrrolin-3-yl)methyl)carbamate] |
| 13 |  | C=C(c1cccc([N+](=O)[O-])c1)c1ccc2c(c1)Nc1ccccc1S2 [Compound B19, 2-(1-(3-nitrophenyl)ethenyl)-10H-phenothiazine] |
| 0.2 |  | C=C(c1ccc(S(=O)(=O)NC2CCN(C)CC2)cc1)c1ccc2c(c1)Nc1ccccc1S2 [Compound B59, 4-(1-(10H-phenothiazin-2-yl)ethenyl)-N-(1-methylpiperidin-4-yl)Benzenesulfonamide] |
| 14 |  | C=C(c1ccc(C#N)c(C)c1)c1ccc2c(c1)Nc1ccccc1S2 [Compound B37, 4-(1-(10H-phenothiazin-2-yl)ethenyl)-2-methylbenzonitrile] |
| 8 |  | CC(C)Cc1ccc(C(C)c2ccc3c(c2)Nc2ccccc2S3)cc1 (stereo not drawn) [Compound A28, 2-(1-(4-isobutylphenyl)ethyl)-10H-phenothiazine] |
| 2 |  | C=C(c1cnc(N2CCN(C)CC2)nc1)c1ccc2c(c1)Nc1ccccc1S2 [Compound B49, 2-(1-(2-(4-methylpiperazin-1-yl)pyrimidin-5-yl)ethenyl)-10H-phenothiazine] |
| 89 |  | C=C(c1cccc(C#N)c1)c1ccc2c(c1)Nc1ccccc1S2 [Compound B32, 3-(1-(10H-phenothiazin-2-yl)ethenyl)benzonitrile] |
| 256 |  | CC(c1ccc2c(c1)Nc1ccccc1S2)S(=O)(=O)N1CCN(NC(=O)OC(C)(C)C)CC1 (stereo not drawn) [Compound C27, t-butyl 4-((1-(10H-phenothiazin-2-yl)ethyl)sulfonyl)piperazin-1-carbamate] |
| 25 |  | CC(c1cccc(OCc2ccccc2)c1)c1ccc2c(c1)Nc1ccccc1S2 (stereo not drawn) [Compound A13, 2-(1-(3-(benzyloxyl)phenyl)ethyl)-10H-phenothiazine] |
| 40 |  | C=C(c1ccc(C(C)C)cc1)c1ccc2c(c1)Nc1ccccc1S2 [Compound B8, 2-(1-(4-isopropylphenyl)ethenyl)-10H-phenothiazine] |
| 335 |  | CC(c1ccc2c(c1)Nc1ccccc1S2)S(=O)(=O)N1CCC[C@@H]1C (stereo partly drawn) [Compound C42] |
| 41 |  | C=C(c1ccc(C#N)c(F)c1)c1ccc2c(c1)Nc1ccccc1S2 [Compound B40, 4-(1-(10H-phenothiazin-2-yl)ethenyl)-2-fluorobenzonitrile] |
| 260 |  | CC(c1ccc2c(c1)Nc1ccccc1S2)S(=O)(=O)N1CC[C@@H](O)C1 (stereo partly drawn) [Compound C14] |
| 586 |  | CC(c1ccc2c(c1)Nc1ccccc1S2)S(=O)(=O)N1CCC[C@@H](NC(=O)OC(C)(C)C)C1 (stereo partly drawn) [Compound C32, t-butyl ((3R)-1-((1-(10H-phenothiazin-2-yl)ethyl)sulfonyl)piperidin-3-yl)carbamate] |
| 11 |  | C=C(c1cccc(OC)c1)c1ccc2c(c1)Nc1ccccc1S2 [Compound B21, 2-(1-(3-methoxylphenyl)ethenyl)-10H-phenothiazine] |
| 12 |  | COc1cc(OC)cc(C(C)c2ccc3c(c2)Nc2ccccc2S3)c1 (stereo not drawn) [Compound A60, 2-(1-(3,5-dimethoxylphenyl)ethyl)-10H-phenothiazine] |
| 62 |  | CCCOc1ccc(C(C)c2ccc3c(c2)Nc2ccccc2S3)cc1 (stereo not drawn) [Compound A32, 2-(1-(4-propoxylphenyl)ethyl)-10H-phenothiazine] |
| 15 |  | CC(c1cccc(C#N)c1)c1ccc2c(c1)Nc1ccccc1S2 (stereo not drawn) [Compound A5, 3-(1-(10H-phenothiazin-2-yl)ethyl)benzonitrile] |
| 19 |  | CC(c1cc(C(F)(F)F)cc(C(F)(F)F)c1)c1ccc2c(c1)Nc1ccccc1S2 (stereo not drawn) [Compound A58, 2-(1-(3,5-bis(trifluoromethyl)phenyl)ethyl)-10H-phenothiazine] |
| 16 |  | CC(c1ccc2c(c1)Nc1ccccc1S2)c1cc2ccccc2o1 (stereo not drawn) [Compound A67, 2-(1-(benzofuran-2-yl)ethyl)-10H-phenothiazine] |
| 271 |  | CC(c1ccc2c(c1)Nc1ccccc1S2)S(=O)(=O)N1CCC(NC(=O)OC(C)(C)C)CC1 (stereo not drawn) [Compound C37, t-butyl (1-((1-(10H-phenothiazin-2-yl)ethyl)sulfonyl)piperidin-4-yl)carbamate] |
| 38 |  | C=C(c1cccc(C(C)C)c1)c1ccc2c(c1)Nc1ccccc1S2 [Compound B27, 2-(1-(3-isopropylphenyl)ethenyl)-10H-phenothiazine] |
| 39 |  | C=C(c1ccc(C2CCCCC2)cc1)c1ccc2c(c1)Nc1ccccc1S2 [Compound B11, 2-(1-(4-cyclohexylphenyl)ethenyl)-10H-phenothiazine] |

| EC50 (Homo sapiens, HT-1080, 72 h) [nM] | EC50 [nM] | SMILES |
| --- | --- | --- |
| 46 |  | CC(c1ccc2c(c1)Nc1ccccc1S2)S(=O)(=O)N1CCN(CCCN(C)C)CC1 (stereo not drawn) [Compound C7, 3-(4-((1-(10H-phenothiazin-2-yl)ethyl)sulfonyl)piperazin-1-yl)-N,N-dimethylpropan-1-amine] |
| 24 |  | Cc1cc(Cl)cc(C(C)c2ccc3c(c2)Nc2ccccc2S3)c1 (stereo not drawn) [Compound A62, 2-(1-(3-chloro-5-methylphenyl)ethyl)-10H-phenothiazine] |
| 64 |  | CC(c1cc(F)cc(OCc2ccccc2)c1)c1ccc2c(c1)Nc1ccccc1S2 (stereo not drawn) [Compound A64, 2-(1-(3-(benzyloxyl)-5-fluorophenyl)ethyl)-10H-phenothiazine] |
| 30 |  | C=C(c1ccc(C=O)cc1)c1ccc2c(c1)Nc1ccccc1S2 [Compound B13, 4-(1-(10H-phenothiazin-2-yl)ethenyl)benzaldehyde] |
| 49 |  | CC(c1cccc(NC(=O)OC(C)(C)C)c1)c1ccc2c(c1)Nc1ccccc1S2 (stereo not drawn) [Compound A16, (3-(1-(10H-phenothiazin-2-yl)ethyl)phenyl)carbamic acid t-butyl ester] |
| 13 |  | C=C(c1ccc(C(=O)N2CCN(C)CC2)cc1)c1ccc2c(c1)Nc1ccccc1S2 [Compound B48, (4-(1-(10H-phenothiazin-2-yl)ethenyl)phenyl)(4-methylpiperazin-1-yl)ketone] |
| 23 |  | C=C(c1ccc(CC)cc1)c1ccc2c(c1)Nc1ccccc1S2 [Compound B4, 2-(1-(4-ethylphenyl)ethenyl)-10H-phenothiazine] |
| 35 |  | CC(c1ccc2c(c1)Nc1ccccc1S2)S(=O)(=O)N1CCN(S(C)(=O)=O)CC1 (stereo not drawn) [Compound C16, 2-(1-((4-(methylsulfonyl)piperazin-1-yl)sulfonyl)ethyl)-10H-phenothiazine] |
|  | 65 | CC(C)Oc1ccc(C(C)c2ccc3c(c2)Nc2ccccc2S3)cc1 (stereo not drawn) [Compound A34, 2-(1-(4-isopropoxylphenyl)ethyl)-10H-phenothiazine] |
| 6 |  | CC(c1ccc(C(F)(F)F)cc1)c1ccc2c(c1)Nc1ccccc1S2 (stereo not drawn) [Compound A21, 2-(1-(4-(trifluoromethyl)phenyl)ethyl)-10H-phenothiazine] |
| 5 |  | CC(c1ccc2c(c1)Nc1ccccc1S2)c1cccc2c1COCO2 (stereo not drawn) [Compound A66, 2-(1-(benzo[d][1,3]dioxin-5-yl)ethyl)-10H-phenothiazine] |
| 6 |  | CC(C)c1ccc(C(C)c2ccc3c(c2)Nc2ccccc2S3)cc1 (stereo not drawn) [Compound A26, 2-(1-(4-isopropylphenyl)ethyl)-10H-phenothiazine] |
| 22 |  | COc1cc(C(C)c2ccc3c(c2)Nc2ccccc2S3)ccc1F (stereo not drawn) [Compound A51, 2-(1-(4-fluoro-3-methoxylphenyl)ethyl)-10H-phenothiazine] |
| 6 |  | CC(c1cccc(F)c1)c1ccc2c(c1)Nc1ccccc1S2 (stereo not drawn) [Compound A2, 2-(1-(3-fluorophenyl)ethyl)-10H-phenothiazine] |
| 20 |  | CC(c1ccc(OC(F)(F)F)cc1)c1ccc2c(c1)Nc1ccccc1S2 (stereo not drawn) [Compound A23, 2-(1-(4-(trifluoromethoxyl)phenyl)ethyl)-10H-phenothiazine] |
| 178 |  | CCCCN1CCN(S(=O)(=O)C(C)c2ccc3c(c2)Nc2ccccc2S3)CC1 (stereo not drawn) [Compound C58, 2-(1-((4-butylpiperazin-1-yl)sulfonyl)ethyl)-10H-phenothiazine] |
| 23 |  | CCOc1ccc(C(C)c2ccc3c(c2)Nc2ccccc2S3)cn1 (stereo not drawn) [Compound A75, 2-(1-(6-ethoxylpyridin-3-yl)ethyl)-10H-phenothiazine] |
| 21 |  | Cc1ccc(C(C)c2ccc3c(c2)Nc2ccccc2S3)cc1C (stereo not drawn) [Compound A46, 2-(1-(3,4-dimethylphenyl)ethyl)-10H-phenothiazine] |
|  | 10 | C=C(c1cnc(N2CCOCC2)nc1)c1ccc2c(c1)Nc1ccccc1S2 [Compound B51, 4-(5-(1-(10H-phenothiazin-2-yl)ethenyl)pyrimidin-2-yl)morpholine] |
| 129 |  | CC(c1ccc2c(c1)Nc1ccccc1S2)S(=O)(=O)N1CCN(Cc2ccc(Cl)cc2)CC1 (stereo not drawn) [Compound C36, 2-(1-((4-(4-chlorobenzyl)piperazin-1-yl)sulfonyl)ethyl)-10H-phenothiazine] |
| 3 |  | C=C(c1ccc(NC(C)=O)cc1)c1ccc2c(c1)Nc1ccccc1S2 [Compound B9, N-(4-(1-(10H-phenothiazin-2-yl)ethenyl)phenyl)acetylamine] |
| 29 |  | CC(C)N1CCN(S(=O)(=O)C(C)c2ccc3c(c2)Nc2ccccc2S3)CC1 (stereo not drawn) [Compound C4, 2-(1-((4-isopropylpiperazin-1-yl)sulfonyl)ethyl)-10H-phenothiazine] |
| 16 |  | CC(c1ccc(Cl)c(Cl)c1)c1ccc2c(c1)Nc1ccccc1S2 (stereo not drawn) [Compound A42, 2-(1-(3,4-dichlorophenyl)ethyl)-10H-phenothiazine] |
| 22 |  | CC(c1ccc(C(F)(F)F)c(Cl)c1)c1ccc2c(c1)Nc1ccccc1S2 (stereo not drawn) [Compound A45, 2-(1-(3-chloro-4-(trifluoromethyl)phenyl)ethyl)-10H-phenothiazine] |
